Data published in patent US20070054916A1, “Aryl nitrogen-containing bicyclic compounds and methods of use” (Amgen Inc., priority 2004, published 2007).

System: production of TNF by monocytes activated with bacterial lipopolysaccharide (LPS)
Test: Lipopolysaccharide-activated monocyte TNF production assay
Format: cell-based
Settings: Homo sapiens, read-out: IC50 values in the monocyte assay (LPS induced TNF release)
Summary of the method: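 Adherent human PBMC-derived monocytes (~70%) in DMEM/2% FCS were pre-incubated 60 min with nine two-fold compound dilutions, then stimulated with E. coli K532 LPS (added as 30 ng/ml solution) for 4 h at 37 °C. Supernatant TNF-α was measured by sandwich ELISA. IC50 was taken from a polynomial fit of TNF versus compound concentration.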

Compound | IC50 [µM]
Cc1ccc(C(=O)Nc2cccc(C(F)(F)F)c2C)cc1-c1ccc2nc(NCCCN3CCCC3=O)ncc2c1 [Example 34, 4-methyl-N-(2-methyl-3-(trifluoromethyl)phenyl)-3-(2-((3-(2-oxo-1-pyrrolidinyl)propyl)amino)-6-quinazolinyl) benzamide] | ≤ 25
Nc1ncc2cc(-c3cc(C(=O)Nc4cccc(C(F)(F)F)c4F)ccc3Cl)ccc2n1 [Example 140, 3-(2-amino-6-quinazolinyl)-4-chloro-N-(2-fluoro-3-(trifluoromethyl)phenyl)benzamide] | ≤ 25
Cc1ccc(C(=O)Nc2cccc(C(F)(F)F)n2)cc1-c1ccc2nc(N)ncc2c1 [Example 359, 3-(2-amino-6-quinazolinyl)-4-methyl-N-(6-(trifluoromethyl)-2-pyridinyl)benzamide] | ≤ 25
CNc1ncc2cc(-c3cccc(C(=O)Nc4cccc(C(F)(F)F)c4)c3)ccc2n1 [Example 53, 3-(2-(methylamino)-6-quinazolinyl)-N-(3-(trifluoromethyl)phenyl)benzamide] | ≤ 25
Cc1ccc(C(=O)Nc2ncccc2O)cc1-c1ccc2nc(N)ncc2c1 [Example 361, 3-(2-amino-6-quinazolinyl)-N-(3-hydroxy-2-pyridinyl)-4-methylbenzamide] | ≤ 25
Cc1ccc(C(=O)Nc2nnc(C(F)(F)F)s2)cc1-c1ccc2nc(N)ncc2c1 [Example 343, 3-(2-amino-6-quinazolinyl)-4-methyl-N-(5-(trifluoromethyl)-1,3,4-thiadiazol-2-yl)benzamide] | ≤ 25
CSc1ccc(C(F)(F)F)cc1NC(=O)c1ccc(C)c(-c2ccc3nc(N)ncc3c2)c1 [Example 146, 3-(2-amino-6-quinazolinyl)-4-methyl-N-(2-(methylsulfanyl)-5-(trifluoromethyl)phenyl)benzamide] | ≤ 25
Cc1ccc(C(=O)Nc2cc(C(F)(F)F)ccc2C(C)(C)CN(C)C)cc1-c1ccc2nc(N)ncc2c1 [Example 83, 3-(2-amino-6-quinazolinyl)-N-(2-(2-(dimethylamino)-1,1-dimethylethyl)-5-(trifluoromethyl)phenyl)-4-methylbenzamide] | ≤ 25
Nc1ncc2cc(-c3ccc(F)c(NC(=O)c4cc(C(F)(F)F)ccc4F)c3)ccc2n1 [Example 433, N-(5-(2-aminoquinazolin-6-yl)-2-fluorophenyl)-2-fluoro-5-(trifluoromethyl)benzamide] | ≤ 25
Cc1ccc(C(=O)Nc2nc(C)c(C)s2)cc1-c1ccc2nc(N)ncc2c1 [Example 225, 3-(2-amino-6-quinazolinyl)-N-(4,5-dimethyl-1,3-thiazol-2-yl)-4-methylbenzamide] | ≤ 25
Cc1ccc(C(=O)Nc2ccc(F)c(C(F)(F)F)c2)cc1-c1ccc2nc(N)ncc2c1 [Example 124, 3-(2-amino-6-quinazolinyl)-N-(4-fluoro-3-(trifluoromethyl)phenyl)-4-methylbenzamide] | ≤ 25
Cc1cc(NC(=O)c2ccc(C)c(-c3ccc4nc(N)ncc4c3)c2)ns1 [Example 344, 3-(2-amino-6-quinazolinyl)-4-methyl-N-(5-methyl-3-isothiazolyl) benzamide] | ≤ 25
COc1ccc(Cl)cc1NC(=O)Nc1ccc(-c2ccc3nc(N)ncc3c2)c(C)c1 [Example 520, N-(4-(2-amino-6-quinazolinyl)-3-methylphenyl)-N′-(5-chloro-2-(methyloxy)phenyl)urea] | ≤ 25
CCN(CC)CCOc1cccnc1NC(=O)c1ccc(C)c(-c2ccc3nc(N)ncc3c2)c1 [Example 363, 3-(2-amino-6-quinazolinyl)-N-(3-((2-(diethylamino)ethyl)oxy)-2-pyridinyl)-4-methylbenzamide] | ≤ 25
CN1CCN(c2ccc(C(F)(F)F)cc2C(=O)Nc2cc(-c3ccc4nc(N)ncc4c3)ccc2F)CC1 [Example 434, N-(5-(2-aminoquinazolin-6-yl)-2-fluorophenyl)-2-(4-methylpiperazin-1-yl)-5-(trifluoromethyl)benzamide] | ≤ 25
COc1ccc(OCCCN2CCN(C)CC2)cc1NC(=O)c1ccc(C)c(-c2ccc3nc(N)ncc3c2)c1 [Example 235] | ≤ 25
CCN(CC)CCOc1ccc(NC(=O)c2ccc(C)c(-c3ccc4nc(N)ncc4c3)c2)c(OC)c1 [Example 70, 3-(2-amino-6-quinazolinyl)-N-(4-((2-(diethylamino)ethyl)oxy)-2-(methyloxy)phenyl)-4-methylbenzamide] | ≤ 25
CCN(CC)CCNC(=O)c1cc(NC(=O)c2ccc(C)c(-c3ccc4nc(N)ncc4c3)c2)cc(C(F)(F)F)c1 [Example 7] | ≤ 25
Cc1ccc(C(=O)Nc2ccc(C(C)(C)C)cc2)cc1-c1ccc2nc(N)ncc2c1 [Example 128, 3-(2-amino-6-quinazolinyl)-N-(4-(1,1-dimethylethyl)phenyl)-4-methylbenzamide] | ≤ 25
Cc1ccc(C(=O)Nc2ccc(OC3CCN(C)CC3)c(C(F)(F)F)c2)cc1-c1ccc2nc(N)ncc2c1 [Example 123, 3-(2-amino-6-quinazolinyl)-4-methyl-N-(4-((1-methyl-4-piperidinyl)oxy)-3-(trifluoromethyl)phenyl)benzamide] | ≤ 25
CNc1ncc2cc(-c3cc(C(=O)Nc4ccc(NC(=O)NCCN5CCOCC5)c(C(F)(F)F)c4)ccc3C)cnc2n1 [Example 187, 4-methyl-3-(2-(methylamino)pyrido [2,3-d]pyrimidin-6-yl)-N-(4-((((2-(4-morpholinyl)ethyl)amino)carbonyl)amino)-3-(trifluoromethyl)phenyl)benzamide] | ≤ 25
Cc1ccc(C(=O)Nc2ccc(NC(=O)NCCN3CCOCC3)c(C(F)(F)F)c2)cc1-c1ccc2nc(N)ncc2c1 [Example 4] | ≤ 25
CNc1ncc2cc(-c3cc(C(=O)Nc4ccc(Cl)c(C(F)(F)F)c4C)ccc3C)ccc2n1 [Example 3, N-(4-chloro-2-methyl-3-(trifluoromethyl)phenyl)-4-methyl-3-(2-(methylamino)-quinazolinyl)benzamide] | ≤ 25
Nc1ncc2cc(-c3cc(C(=O)Nc4cccc(OC(F)(F)F)c4)ccc3Cl)ccc2n1 [Example 142, 3-(2-amino-6-quinazolinyl)-4-chloro-N-(3-((trifluoromethyl)oxy)phenyl)benzamide] | ≤ 25
Cc1ccc(C(=O)Nc2ccc(C(C)(C)C)c(NC(=O)CN(C)C)c2)cc1-c1ccc2nc(N)ncc2c1 [Example 227, 3-(2-amino-6-quinazolinyl)-N-(4-(1,1-dimethylethyl)-3-((N,N-dimethylglycyl)amino)phenyl)-4-methylbenzamide] | ≤ 25
Cc1ccc(C(=O)Nc2ccc(OCCCN(C)C)cc2)cc1-c1ccc2nc(N)ncc2c1 [Example 69, 3-(2-amino-6-quinazolinyl)-N-(4-((3-(dimethylamino)propyl)oxy)phenyl)-4-methylbenzamide] | ≤ 25
Cc1ccc(C(=O)NCc2ccc(C(F)(F)F)nc2)cc1-c1ccc2nc(N)ncc2c1 [Example 357, 3-(2-amino-6-quinazolinyl)-4-methyl-N-((6-(trifluoromethyl)-3-pyridinyl)methyl) benzamide] | ≤ 25
Cc1ccc(C(=O)Nc2cccc(C(F)(F)F)c2C)cc1-c1ccc2nc(NCCCN3CCOCC3)ncc2c1 [Example 32, 4-methyl-N-(2-methyl-3-(trifluoromethyl)phenyl)-3-(2-((3-(4-morpholinyl)propyl)amino)-6-quinazolinyl) benzamide] | ≤ 25
CNc1ncc2cc(-c3cc(NC(=O)c4cccc(C(F)(F)F)c4F)ccc3C)cnc2n1 [Example 202] | ≤ 25
